ChEMBL document CHEMBL1122718, “Benzylamines: synthesis and evaluation of antimycobacterial properties” (1984)

What was measured:
Type in all cases: functional
[1] = system: Mycobacterium avium; experiment: Minimum inhibitory concentration (MIC) of compound against Mycobacterium avium SN 304
[2] = system: Mycobacterium tuberculosis; experiment: Compound was evaluated for the synergistic effect in combination with cycloserine for the inhibition of Mycobacterium tuberculosis H 37 Ra, using middlebrook 7H9 medium (liquid)
[3] = system: Mycobacterium tuberculosis; experiment: Fractional inhibitory concentration (FIC) was determined for the compound in combination of trimethoprim
[4] = system: Mycobacterium tuberculosis; experiment: Compound was evaluated for the synergistic effect in combination with dapsone for the inhibition of Mycobacterium tuberculosis H 37 Ra, using Lowenstein-Jensen medium (solid)
[5] = system: Mycobacterium tuberculosis; experiment: Minimum inhibitory concentration (MIC) of compound against Mycobacterium tuberculosis H 37 Rv
[6] = system: Mycobacterium tuberculosis; experiment: Compound was evaluated for the synergistic effect in combination with rifampicin for the inhibition of Mycobacterium tuberculosis H 37 Ra, using Lowenstein-Jensen medium (solid)
[7] = system: Mycolicibacterium smegmatis; experiment: Minimum inhibitory concentration (MIC) of compound against Mycobacterium smegmatis ATCC 607
[8] = system: Mycobacterium tuberculosis; experiment: Compound was evaluated for the synergistic effect in combination with ethambutol for the inhibition of Mycobacterium tuberculosis H 37 Ra, using middlebrook 7H9 medium (liquid)
[9] = system: Mycobacterium tuberculosis; experiment: Fractional inhibitory concentration (FIC) was determined for the compound in combination of Ethambutol
[10] = system: Mycobacterium tuberculosis; experiment: Compound was evaluated for the synergistic effect in combination with ethionamide for the inhibition of Mycobacterium tuberculosis H 37 Ra, using Lowenstein-Jensen medium (solid)
[11] = system: Mycobacterium tuberculosis; experiment: Compound was evaluated for the synergistic effect in combination with streptomycin sulfate for the inhibition of Mycobacterium tuberculosis H 37 Ra, using Lowenstein-Jensen medium (solid)
[12] = system: Mycobacterium tuberculosis; experiment: Compound was evaluated for the synergistic effect in combination with trimethoprim for the inhibition of Mycobacterium tuberculosis H 37 Ra, using middlebrook 7H9 medium (liquid)
[13] = system: Mycobacterium lufu; experiment: Minimum inhibitory concentration (MIC) of compound against Mycobacterium lufu L 209
[14] = system: Mycobacterium tuberculosis; experiment: Compound was evaluated for the synergistic effect in combination with trimethoprim for the inhibition of Mycobacterium tuberculosis H 37 Ra, using Lowenstein-Jensen medium (solid)
[15] = system: Mycobacterium tuberculosis; experiment: Compound was evaluated for the synergistic effect in combination with benzaldehyde thiosemicarbazone for the inhibition of Mycobacterium tuberculosis H 37 Ra, using middlebrook 7H9 medium (liquid)
[16] = system: Mycobacterium tuberculosis; experiment: Compound was evaluated for the synergistic effect in combination with benzaldehyde thiosemicarbazone for the inhibition of Mycobacterium tuberculosis H 37 Ra, using Lowenstein-Jensen medium (solid)
[17] = system: Mycobacterium tuberculosis; experiment: Compound was evaluated for the synergistic effect in combination with dapsone for the inhibition of Mycobacterium tuberculosis H 37 Ra, using middlebrook 7H9 medium (liquid)
[18] = system: Mycobacterium tuberculosis; experiment: Compound was evaluated for the synergistic effect in combination with aminosalicylic acid for the inhibition of Mycobacterium tuberculosis H 37 Ra, using middlebrook 7H9 medium (liquid)
[19] = system: Mycobacterium tuberculosis; experiment: Compound was evaluated for the synergistic effect in combination with aminosalicylic acid for the inhibition of Mycobacterium tuberculosis H 37 Ra, using Lowenstein-Jensen medium (solid)
[20] = system: Mycobacterium tuberculosis; experiment: Fractional inhibitory concentration (FIC) was determined for the compound in combination of Benzaldehyde thiosemicarbazone
[21] = system: Mycobacterium tuberculosis; experiment: Fractional inhibitory concentration (FIC) was determined for the compound in combination of Tetracycline hydrochloride
[22] = system: Mycobacterium tuberculosis; experiment: Fractional inhibitory concentration (FIC) was determined for the compound in combination of Streptomycin sulfate
[23] = system: Mycobacterium tuberculosis; experiment: Compound was evaluated for the synergistic effect in combination with streptomycin sulfate for the inhibition of Mycobacterium tuberculosis H 37 Ra, using middlebrook 7H9 medium (liquid)
[24] = system: Mycobacterium tuberculosis; experiment: Minimum inhibitory concentration (MIC) against Mycobacterium tuberculosis H 37 Ra
[25] = system: Mycobacterium tuberculosis; experiment: Fractional inhibitory concentration (FIC) was determined for the compound in combination of Dapsone
[26] = system: Mycobacterium tuberculosis; experiment: Fractional inhibitory concentration (FIC) was determined for the compound in combination of Aminosalicylic acid
[27] = system: Mycobacterium tuberculosis; experiment: Compound was evaluated for the synergistic effect in combination with capreomycin for the inhibition of Mycobacterium tuberculosis H 37 Ra, using Lowenstein-Jensen medium (solid)
[28] = system: Mycobacterium tuberculosis; experiment: Compound was evaluated for the synergistic effect in combination with isoniazid for the inhibition of Mycobacterium tuberculosis H 37 Ra, using Lowenstein-Jensen medium (solid)
[29] = system: Mycobacterium tuberculosis; experiment: Fractional inhibitory concentration (FIC) was determined for the compound in combination of Capreomycin
[30] = system: Mycobacterium tuberculosis; experiment: Fractional inhibitory concentration (FIC) was determined for the compound in combination of Ethionamide
[31] = system: Mycobacterium tuberculosis; experiment: Compound was evaluated for the synergistic effect in combination with capreomycin for the inhibition of Mycobacterium tuberculosis H 37 Ra, using middlebrook 7H9 medium (liquid)
[32] = system: Mycobacterium tuberculosis; experiment: Compound was evaluated for the synergistic effect in combination with tetracycline hydrochloride for the inhibition of Mycobacterium tuberculosis H 37 Ra, using Lowenstein-Jensen medium (solid)
[33] = system: Mycobacterium tuberculosis; experiment: Compound was evaluated for the synergistic effect in combination with tetracycline hydrochloride for the inhibition of Mycobacterium tuberculosis H 37 Ra, using middlebrook 7H9 medium (liquid)
[34] = system: Mycobacterium tuberculosis; experiment: Fractional inhibitory concentration (FIC) was determined for the compound in combination of Isoniazid
[35] = system: Mycobacterium tuberculosis; experiment: Compound was evaluated for the synergistic effect in combination with isoniazid for the inhibition of Mycobacterium tuberculosis H 37 Ra, using middlebrook 7H9 medium (liquid)
[36] = system: Mycobacterium tuberculosis; experiment: Compound was evaluated for the synergistic effect in combination with ethionamide for the inhibition of Mycobacterium tuberculosis H 37 Ra, using middlebrook 7H9 medium (liquid)
[37] = system: Mycobacterium tuberculosis; experiment: Fractional inhibitory concentration (FIC) was determined for the compound in combination of Rifampicin
[38] = system: Mycobacterium tuberculosis; experiment: Compound was evaluated for the synergistic effect in combination with ethambutol for the inhibition of Mycobacterium tuberculosis H 37 Ra, using Lowenstein-Jensen medium (solid)
[39] = system: Mycobacterium tuberculosis; experiment: Compound was evaluated for the synergistic effect in combination with cycloserine for the inhibition of Mycobacterium tuberculosis H 37 Ra, using Lowenstein-Jensen medium (solid)
[40] = system: Mycobacterium tuberculosis; experiment: Compound was evaluated for the synergistic effect in combination with rifampicin for the inhibition of Mycobacterium tuberculosis H 37 Ra, using middlebrook 7H9 medium (liquid)
[41] = system: Mycobacterium tuberculosis; experiment: Fractional inhibitory concentration (FIC) was determined for the compound in combination of Cycloserine
[42] = system: Mycobacterium marinum; experiment: Minimum inhibitory concentration (MIC) of compound against Mycobacterium marinum SN 1254

Q: Which results are given for `CNCc1cc(Cl)cc(Cl)c1.Cl`?
A: MIC [1]: 4 µg/mL; MIC [2]: 32 µg/mL; FIC index [3]: 0.5; MIC [4]: 5.12 µg/mL; MIC [5]: 3 µg/mL; MIC [6]: 0.512 µg/mL; MIC [7]: 32 µg/mL; MIC [8]: 5 µg/mL; FIC index [9]: 1; MIC [10]: 6.4 µg/mL; MIC [11]: 7.68 µg/mL; MIC [12]: 256 µg/mL; MIC [13]: 4 µg/mL; MIC [14]: 179 µg/mL; MIC [15]: 0.1 µg/mL; MIC [16]: 0.179 µg/mL; MIC [17]: 32 µg/mL; MIC [18]: 0.05 µg/mL; MIC [19]: 0.025 µg/mL; FIC index [20]: 0.25; FIC index [21]: 1; FIC index [22]: 0.125; MIC [23]: 0.1 µg/mL; MIC [24]: 10.2 µg/mL; FIC index [25]: 0.031; FIC index [26]: 0.0625; MIC [27]: 4.47 µg/mL; MIC [28]: 0.03 µg/mL; FIC index [29]: 1; FIC index [30]: 1; MIC [31]: 0.5 µg/mL; MIC [32]: 7.68 µg/mL; MIC [33]: 2 µg/mL; FIC index [34]: 1; MIC [35]: 0.1 µg/mL; MIC [36]: 1 µg/mL; FIC index [37]: 0.5; MIC [38]: 1 µg/mL; MIC [39]: 25.6 µg/mL; MIC [40]: 0.01 µg/mL; FIC index [41]: 1; MIC [42]: 4 µg/mL
